Target: T1, PcCDHTr (Phanerodontia chrysosporium, UniProt Q01738)
T1 construct: gene CDH-1; full two-domain flavocytochrome, native signal peptide (cleaved), untagged, secreted by Trichoderma reesei delta-xyr1; 83 kDa by SDS-PAGE
Assay: TCA precipitation, released FAD by A450
Assay type: binding
Settings: co-purified cofactor

T1 sequence (Q01738 19-773): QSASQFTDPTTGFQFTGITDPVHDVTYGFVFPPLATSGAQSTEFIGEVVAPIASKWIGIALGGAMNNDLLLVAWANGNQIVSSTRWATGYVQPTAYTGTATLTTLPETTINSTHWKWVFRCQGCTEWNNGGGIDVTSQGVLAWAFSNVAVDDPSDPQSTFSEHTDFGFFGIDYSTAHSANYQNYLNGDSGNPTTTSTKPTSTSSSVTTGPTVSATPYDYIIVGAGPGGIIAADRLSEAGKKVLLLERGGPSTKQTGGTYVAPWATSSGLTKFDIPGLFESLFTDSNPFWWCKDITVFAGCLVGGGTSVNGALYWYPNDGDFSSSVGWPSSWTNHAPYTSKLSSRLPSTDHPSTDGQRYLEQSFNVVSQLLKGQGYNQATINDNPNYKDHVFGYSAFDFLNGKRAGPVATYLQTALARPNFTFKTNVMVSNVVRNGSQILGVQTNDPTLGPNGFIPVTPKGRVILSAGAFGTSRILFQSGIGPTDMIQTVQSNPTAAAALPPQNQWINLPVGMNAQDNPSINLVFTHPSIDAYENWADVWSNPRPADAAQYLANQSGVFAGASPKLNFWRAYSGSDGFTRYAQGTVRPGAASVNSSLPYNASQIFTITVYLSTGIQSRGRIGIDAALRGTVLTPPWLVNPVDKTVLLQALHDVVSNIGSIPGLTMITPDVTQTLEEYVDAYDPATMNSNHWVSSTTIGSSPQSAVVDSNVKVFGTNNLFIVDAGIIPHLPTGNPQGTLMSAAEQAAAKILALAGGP

For `Cc1cc2nc3c(=O)[nH]c(=O)nc-3n(C[C@H](O)[C@H](O)[C@H](O)COP(=O)(O)OP(=O)(O)OC[C@H]3O[C@@H](n4cnc5c(N)ncnc54)[C@H](O)[C@@H]3O)c2cc1C` [FAD], which FAD occupancy is on record?
Its FAD occupancy is 70%.
